For data set [1] the following is noted: reference 6; cited from earlier work.
Data set [2] in a line: PS-80 degradation in protein formulations containing PLBL2 (unpublished results). It is filed as physicochemical. The settings on record: protein formulations containing over 500 ppm of PLBL2.
For a further data set, the system named is serine hydrolases. The data set is described as follows: Activity-based chemical proteomics approach (fluorophosphonate probe enrichment, LC-MS/MS). The settings on record: HCCF, compared to other lipases.

Take phospholipase A2, group XV [Pla2g15]: in data set [1], the “concentration at which PS-80 and PS-20 are degraded (as low as)” value was 0.3 ppm; the “concentration with significant impact on PS-80 degradation” value was “below 1 ppm”.
Turning to “phospholipase B domain containing 2 [Plbd2]”, the PS-80 degradation result in data set [2] is recorded as “without any PS-80 degradation”. For the same substance, the “enrichment of the enzyme by the chemical probes” value in the data set on serine hydrolases (listed as CHO PLBL2) is given as “not enriched”; in the data set with serine hydrolases (listed as Plbl2) it was “limited enrichment”.

Values taken from US20220018849A1, “SERINE HYDROLASE PROFILING ASSAY IN BIOTHERAPEUTICS” (Merck Sharp & Dohme Corp., priority 2020, published 2022).
